The results in this text go back to patent publication US9580423B2, “Bicyclic heterocycles as FGFR4 inhibitors” (Incyte Corporation, priority 2015, dated 2017).

Where two headings read alike, the source gives them in different places. Some results are limits rather than exact numbers.

The target in one test is FGFR1 (Homo sapiens (Human), UniProt P11362). The test is described as follows: FGFR Enzymatic Assay (FRET peptide phosphorylation), FGFR1. The settings on record: read-out: FGFR1 IC50.
The next test has as its target FGFR2 (Homo sapiens (Human), UniProt P21802). Put plainly: FGFR Enzymatic Assay (FRET peptide phosphorylation), FGFR2. The settings on record: read-out: FGFR2 IC50.
In a further test the target is FGFR3 (Homo sapiens (Human), UniProt P22607). Put plainly: FGFR Enzymatic Assay (FRET peptide phosphorylation), FGFR3. The settings on record: read-out: FGFR3 IC50.
The target of another test is FGFR4 (Homo sapiens (Human), UniProt P22455). Put plainly: FGFR Enzymatic Assay (FRET peptide phosphorylation), FGFR4. The settings on record: for FGFR1/FGFR4 IC50 ratio / FGFR2/FGFR4 IC50 ratio / FGFR3/FGFR4 IC50 ratio: IC50 ratio showing FGFR4 selectivity.
The mark [1] stands for this setting: read-out: FGFR4 IC50, pre-incubated for 4 hours.
The mark [2] stands for this setting: pre-incubated for 5 to 10 minutes.
[3] abbreviates: read-out: FGFR4 IC50, pre-incubated for 5 to 10 minutes.

For orientation: IC50 means the concentration that gives 50% inhibition.

Chain of FGFR1 (P11362 22-822): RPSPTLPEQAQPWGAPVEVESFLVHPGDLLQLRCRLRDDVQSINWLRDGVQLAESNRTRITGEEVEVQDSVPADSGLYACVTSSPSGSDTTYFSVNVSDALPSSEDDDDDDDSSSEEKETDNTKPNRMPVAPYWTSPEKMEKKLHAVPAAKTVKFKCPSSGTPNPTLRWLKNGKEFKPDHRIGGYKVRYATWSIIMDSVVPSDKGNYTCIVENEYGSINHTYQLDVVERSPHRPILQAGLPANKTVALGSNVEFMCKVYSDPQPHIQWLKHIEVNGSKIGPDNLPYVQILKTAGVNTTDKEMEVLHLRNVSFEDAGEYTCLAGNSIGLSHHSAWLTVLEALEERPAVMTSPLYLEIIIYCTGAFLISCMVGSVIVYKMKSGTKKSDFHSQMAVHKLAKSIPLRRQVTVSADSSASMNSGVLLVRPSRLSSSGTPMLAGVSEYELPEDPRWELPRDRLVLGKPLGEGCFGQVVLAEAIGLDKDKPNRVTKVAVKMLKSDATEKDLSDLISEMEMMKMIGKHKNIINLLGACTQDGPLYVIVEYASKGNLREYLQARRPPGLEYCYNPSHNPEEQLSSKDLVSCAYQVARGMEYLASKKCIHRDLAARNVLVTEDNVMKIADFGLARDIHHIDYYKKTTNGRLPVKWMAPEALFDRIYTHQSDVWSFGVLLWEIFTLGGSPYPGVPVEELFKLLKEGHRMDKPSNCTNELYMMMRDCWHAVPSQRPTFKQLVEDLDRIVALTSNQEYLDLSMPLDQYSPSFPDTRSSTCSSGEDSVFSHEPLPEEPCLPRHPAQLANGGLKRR
Chain of FGFR2 (P21802 22-821): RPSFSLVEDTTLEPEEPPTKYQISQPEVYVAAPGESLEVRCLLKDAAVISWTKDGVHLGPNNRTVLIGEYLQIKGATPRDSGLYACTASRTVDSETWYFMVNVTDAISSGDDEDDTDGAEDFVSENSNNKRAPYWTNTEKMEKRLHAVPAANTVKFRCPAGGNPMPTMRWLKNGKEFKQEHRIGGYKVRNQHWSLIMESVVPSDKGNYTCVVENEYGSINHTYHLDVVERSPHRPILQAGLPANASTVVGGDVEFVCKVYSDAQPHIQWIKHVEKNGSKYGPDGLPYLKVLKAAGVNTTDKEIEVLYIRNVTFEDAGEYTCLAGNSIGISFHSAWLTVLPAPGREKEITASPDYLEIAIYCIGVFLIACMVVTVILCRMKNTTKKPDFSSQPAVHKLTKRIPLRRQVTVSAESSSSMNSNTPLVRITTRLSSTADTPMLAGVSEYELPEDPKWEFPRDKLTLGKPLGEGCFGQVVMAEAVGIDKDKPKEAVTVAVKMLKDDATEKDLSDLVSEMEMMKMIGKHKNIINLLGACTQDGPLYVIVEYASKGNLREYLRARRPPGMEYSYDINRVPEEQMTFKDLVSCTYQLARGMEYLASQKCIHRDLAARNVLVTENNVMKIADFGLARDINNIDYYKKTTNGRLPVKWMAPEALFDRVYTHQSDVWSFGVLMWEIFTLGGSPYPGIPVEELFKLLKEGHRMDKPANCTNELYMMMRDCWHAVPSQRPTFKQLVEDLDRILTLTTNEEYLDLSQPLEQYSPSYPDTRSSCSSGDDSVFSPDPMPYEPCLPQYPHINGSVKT
Chain of FGFR3 (P22607 23-806): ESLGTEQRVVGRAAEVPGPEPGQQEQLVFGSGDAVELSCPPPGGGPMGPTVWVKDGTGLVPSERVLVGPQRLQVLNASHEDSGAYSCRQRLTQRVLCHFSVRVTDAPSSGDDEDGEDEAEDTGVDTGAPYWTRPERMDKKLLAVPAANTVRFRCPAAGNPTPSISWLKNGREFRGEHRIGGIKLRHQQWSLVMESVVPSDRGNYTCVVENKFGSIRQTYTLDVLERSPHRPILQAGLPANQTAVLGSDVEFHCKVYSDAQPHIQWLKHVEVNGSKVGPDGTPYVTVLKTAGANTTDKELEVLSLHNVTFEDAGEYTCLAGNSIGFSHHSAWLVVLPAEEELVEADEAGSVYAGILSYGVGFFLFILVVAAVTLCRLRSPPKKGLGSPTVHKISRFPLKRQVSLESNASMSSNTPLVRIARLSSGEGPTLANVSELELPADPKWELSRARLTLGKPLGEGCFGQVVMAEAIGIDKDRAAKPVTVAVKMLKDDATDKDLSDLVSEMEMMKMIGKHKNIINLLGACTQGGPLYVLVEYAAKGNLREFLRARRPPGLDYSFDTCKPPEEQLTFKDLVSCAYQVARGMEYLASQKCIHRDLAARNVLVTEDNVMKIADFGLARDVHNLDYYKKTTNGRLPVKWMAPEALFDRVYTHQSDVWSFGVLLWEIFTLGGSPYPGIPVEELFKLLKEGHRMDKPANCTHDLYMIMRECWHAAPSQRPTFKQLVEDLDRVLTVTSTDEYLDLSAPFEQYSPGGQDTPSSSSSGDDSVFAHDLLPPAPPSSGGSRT
Chain of FGFR4 (P22455 22-802): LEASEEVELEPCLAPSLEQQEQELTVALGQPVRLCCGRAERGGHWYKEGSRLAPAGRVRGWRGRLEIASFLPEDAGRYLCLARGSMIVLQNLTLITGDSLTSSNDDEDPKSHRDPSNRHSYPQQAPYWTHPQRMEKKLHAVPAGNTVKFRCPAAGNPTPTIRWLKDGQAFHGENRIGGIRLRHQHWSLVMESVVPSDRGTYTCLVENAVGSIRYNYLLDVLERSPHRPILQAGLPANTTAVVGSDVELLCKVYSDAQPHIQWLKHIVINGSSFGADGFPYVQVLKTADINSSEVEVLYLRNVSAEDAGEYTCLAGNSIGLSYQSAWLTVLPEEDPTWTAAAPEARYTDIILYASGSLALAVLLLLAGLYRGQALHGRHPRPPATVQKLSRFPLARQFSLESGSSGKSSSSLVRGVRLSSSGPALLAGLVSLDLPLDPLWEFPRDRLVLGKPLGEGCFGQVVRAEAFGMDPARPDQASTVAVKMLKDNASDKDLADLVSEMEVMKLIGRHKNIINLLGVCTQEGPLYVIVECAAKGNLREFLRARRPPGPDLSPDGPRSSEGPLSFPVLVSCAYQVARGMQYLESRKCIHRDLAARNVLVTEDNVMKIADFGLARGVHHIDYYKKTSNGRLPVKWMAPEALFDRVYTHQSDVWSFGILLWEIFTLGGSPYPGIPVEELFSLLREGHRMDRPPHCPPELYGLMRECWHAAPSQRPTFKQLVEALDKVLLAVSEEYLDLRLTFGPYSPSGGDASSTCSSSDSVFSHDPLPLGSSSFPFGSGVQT
Excerpt for FGFR1: (§1) The enzymes were purchased from Millipore or Invitrogen.
(§2) GraphPad prism3 was used to analyze the data. The IC50 values were derived by fitting the data to the equation for a sigmoidal dose-response with a variable slope. Y=Bottom+(Top-Bottom)/(1+10^((LogIC50−X)*HillSlope)) where X is the logarithm of concentration and Y is the response.
Excerpt for FGFR2: as §1, §2
Excerpt for FGFR3: as §1, §2
Excerpt for FGFR4: as §1, §2

As to `C=CC(=O)Nc1cnn(CCO)c1-c1cc2c(cn1)CN(c1c(F)c(OC)cc(OC)c1F)C(=O)C21CC1` [Example 17, N-(5-(2′-(2,6-difluoro-3,5-dimethoxyphenyl)-3′-oxo2′,3′-dihydro-1′H-spiro[cyclopropane-1,4′-[2,7]naphthyridine]-6′-yl)-1-(2-hydroxyethyl)-1H-pyrazol-4-yl)acrylamide], the half-maximal inhibitory concentration (IC50) was > 200 nM at FGFR1 (pre-incubated for 4 hours), > 200 nM at FGFR2 (pre-incubated for 4 hours), > 200 nM on FGFR3 (pre-incubated for 4 hours) and < 10 nM on FGFR4 (setting [1]). Further, at FGFR4 (pre-incubated for 4 hours), the “FGFR1/FGFR4 IC50 ratio” value was >100. Further, the “FGFR2/FGFR4 IC50 ratio” value on FGFR4 (pre-incubated for 4 hours) was >100. For the same molecule, the “FGFR3/FGFR4 IC50 ratio” value at FGFR4 (pre-incubated for 4 hours) was >100.
For `C=CC(=O)Nc1cnn(C[C@H]2CCCO2)c1-c1cc2c(cn1)CN(c1c(F)c(OC)cc(OC)c1F)C(=O)C21CC1` [Example 30, (R)-N-(5-(2′-(2,6-difluoro-3,5-dimethoxyphenyl)-3′-oxo-2′,3′-dihydro-1′H-spiro[cyclopropane-1,4′-[2,7]naphthyridine]-6′-yl)-1-((tetrahydrofuran-2-yl)methyl)-1H-pyrazol-4-yl)acrylamide], the concentration for half-maximal inhibition (IC50) at FGFR1 (pre-incubated for 4 hours) is > 200 nM; at FGFR2 (pre-incubated for 4 hours), > 200 nM; on FGFR3 (pre-incubated for 4 hours), > 200 nM; on FGFR4 (setting [1]) it was < 10 nM. For the same molecule, at FGFR4 (pre-incubated for 4 hours), the “FGFR1/FGFR4 IC50 ratio” value is on record as >100. Also, at FGFR4 (pre-incubated for 4 hours), the “FGFR2/FGFR4 IC50 ratio” value was >100. Further, the “FGFR3/FGFR4 IC50 ratio” value on FGFR4 (pre-incubated for 4 hours) was >100.
In the case of `C=CC(=O)Nc1cnn(C[C@H]2CCOC2)c1-c1cc2c(cn1)CN(c1c(F)c(OC)cc(OC)c1F)C(=O)C21CC1` [Example 29, (R)-N-(5-(2′-(2,6-difluoro-3,5-dimethoxyphenyl)-3′-oxo-2′,3′-dihydro-1′H-spiro[cyclopropane-1,4′-[2,7]naphthyridine]-6′-yl)-1-((tetrahydrofuran-3-yl)methyl)-1H-pyrazol-4-yl)acrylamide], the IC50 on FGFR1 (pre-incubated for 4 hours) was > 200 nM; at FGFR2 (pre-incubated for 4 hours) it was > 200 nM; at FGFR3 (pre-incubated for 4 hours), > 200 nM; at FGFR4 (setting [1]), < 10 nM. The “FGFR1/FGFR4 IC50 ratio” value on FGFR4 (pre-incubated for 4 hours) is given as >100. The “FGFR2/FGFR4 IC50 ratio” value at FGFR4 (pre-incubated for 4 hours) is on record as >100. The “FGFR3/FGFR4 IC50 ratio” value at FGFR4 (pre-incubated for 4 hours) is recorded as >100.
Take `C=CC(=O)Nc1cnn(Cc2ccncc2)c1-c1cc2c(cn1)CN(c1c(F)c(OC)cc(OC)c1F)C(=O)C21CC1` [Example 21, N-(5-(2′-(2,6-difluoro-3,5-dimethoxyphenyl)-3′-oxo-2′,3′-dihydro-1′H-spiro[cyclopropane-1,4′-[2,7]naphthyridine]-6′-yl)-1-(pyridin-4-ylmethyl)-1H-pyrazol-4-yl)acrylamide]: the IC50 at FGFR1 (pre-incubated for 4 hours) was > 200 nM; on FGFR2 (pre-incubated for 4 hours), > 200 nM; at FGFR3 (pre-incubated for 4 hours), > 200 nM; on FGFR4 (setting [1]), < 10 nM. On FGFR4 (pre-incubated for 4 hours), the “FGFR1/FGFR4 IC50 ratio” value is given as >100. For the same molecule, at FGFR4 (pre-incubated for 4 hours), the “FGFR2/FGFR4 IC50 ratio” value was >50. In addition, the “FGFR3/FGFR4 IC50 ratio” value on FGFR4 (pre-incubated for 4 hours) was >100.
`C=CC(=O)Nc1cnn(CC2CCOCC2)c1-c1cc2c(cn1)CN(c1c(F)c(OC)cc(OC)c1F)C(=O)C21CC1` [Example 24, N-(5-(2′-(2,6-difluoro-3,5-dimethoxyphenyl)-3′-oxo,2′,3′-dihydro-1′H-spiro[cyclopropane-1,4′-[2,7]naphthyridine]-6′-yl)-1-((tetrahydro-2H-pyran-4-yl)methyl)-1H-pyrazol-4-yl)acrylamide]: the half-maximal inhibitory concentration (IC50) at FGFR1 (pre-incubated for 4 hours) is > 200 nM; on FGFR2 (pre-incubated for 4 hours), > 200 nM; at FGFR3 (pre-incubated for 4 hours) it was > 200 nM; against FGFR4 it was 10 to 30 nM. Also, at FGFR4 (pre-incubated for 4 hours), the “FGFR1/FGFR4 IC50 ratio” value is >100. For the same molecule, the “FGFR2/FGFR4 IC50 ratio” value on FGFR4 (pre-incubated for 4 hours) was >100. For the same molecule, the “FGFR3/FGFR4 IC50 ratio” value on FGFR4 (pre-incubated for 4 hours) was >100.
Take `C=CC(=O)Nc1cnn(CCN2CCOCC2)c1-c1cc2c(cn1)CN(c1c(F)c(OC)cc(OC)c1F)C(=O)C21CC1` [Example 19, N-(5-(2′-(2,6-difluoro-3,5-dimethoxyphenyl)-3′-oxo-2′,3′-dihydro-1′H-spiro[cyclopropane-1,4′-[2,7]naphthyridine]-6′-yl)-1-(2-morpholinoethyl)-1H-pyrazol-4-yl)acrylamide]: the IC50 was > 200 nM at FGFR1 (pre-incubated for 4 hours), > 200 nM at FGFR2 (pre-incubated for 4 hours), > 200 nM on FGFR3 (pre-incubated for 4 hours) and 10 to 30 nM at FGFR4. The “FGFR1/FGFR4 IC50 ratio” value at FGFR4 (pre-incubated for 4 hours) is reported as >100. Further, the “FGFR2/FGFR4 IC50 ratio” value at FGFR4 (pre-incubated for 4 hours) is recorded as >100. The “FGFR3/FGFR4 IC50 ratio” value on FGFR4 (pre-incubated for 4 hours) was >100.
As for `C=CC(=O)Nc1cn(CCOC)nc1-c1cc2c(cn1)CN(c1c(F)c(OC)cc(OC)c1F)C(=O)C21CC1` [Example 32, N-(3-(2′-(2,6-difluoro-3,5-dimethoxyphenyl)-3′-oxo-2′,3′-dihydro-1′H-spiro[cyclopropane-1,4′-[2,7]naphthyridine]-6′-yl)-1-(2-methoxyethyl)-1H-pyrazol-4-yl)acrylamide], the half-maximal inhibitory concentration (IC50) was > 200 nM on FGFR1 (pre-incubated for 4 hours), > 200 nM on FGFR2 (pre-incubated for 4 hours), > 200 nM at FGFR3 (pre-incubated for 4 hours) and < 10 nM on FGFR4 (setting [1]). On FGFR4 (pre-incubated for 4 hours), the “FGFR1/FGFR4 IC50 ratio” value is reported as >100. Moreover, on FGFR4 (pre-incubated for 4 hours), the “FGFR2/FGFR4 IC50 ratio” value is reported as >100. At FGFR4 (pre-incubated for 4 hours), the “FGFR3/FGFR4 IC50 ratio” value is >100.
For the molecule `C=CC(=O)Nc1cnn(Cc2cccnc2)c1-c1cc2c(cn1)CN(c1c(F)c(OC)cc(OC)c1F)C(=O)C21CC1` [Example 22, N-(5-(2′-(2,6-difluoro-3,5-dimethoxyphenyl)-3′-oxo-2′,3′-dihydro-1′H-spiro[cyclopropane-1,4′-[2,7]naphthyridine]-6′-yl)-1-(pyridin-3-ylmethyl)-1H-pyrazol-4-yl)acrylamide], the IC50 on FGFR1 (pre-incubated for 4 hours) is > 200 nM; at FGFR2 (pre-incubated for 4 hours), > 200 nM; at FGFR3 (pre-incubated for 4 hours), > 200 nM; on FGFR4 (setting [1]) it was < 10 nM. Moreover, the “FGFR1/FGFR4 IC50 ratio” value on FGFR4 (pre-incubated for 4 hours) is >100. In addition, on FGFR4 (pre-incubated for 4 hours), the “FGFR2/FGFR4 IC50 ratio” value was >100. Besides, the “FGFR3/FGFR4 IC50 ratio” value at FGFR4 (pre-incubated for 4 hours) was >100.
Turning to `C=CC(=O)Nc1cn(CCN2CCOCC2)nc1-c1cc2c(cn1)CN(c1c(F)c(OC)cc(OC)c1F)C(=O)C21CC1` [Example 34, N-(3-(2′-(2,6-difluoro-3,5-dimethoxyphenyl)-3′-oxo-2′,3′-dihydro-1′H-spiro[cyclopropane-1,4′-[2,7]naphthyridine]-6′-yl)-1-(2-morpholinoethyl)-1H-pyrazol-4-yl)acrylamide], the IC50 was > 200 nM at FGFR1 (pre-incubated for 4 hours), > 200 nM at FGFR2 (pre-incubated for 4 hours), > 200 nM at FGFR3 (pre-incubated for 4 hours) and < 10 nM on FGFR4 (setting [1]). The “FGFR1/FGFR4 IC50 ratio” value at FGFR4 (pre-incubated for 4 hours) is reported as >100. Besides, the “FGFR2/FGFR4 IC50 ratio” value on FGFR4 (pre-incubated for 4 hours) is given as >100. The “FGFR3/FGFR4 IC50 ratio” value at FGFR4 (pre-incubated for 4 hours) is reported as >100.
With `C=CC(=O)Nc1cnc(C)c(-c2cc3c(cn2)CN(c2c(F)c(OC)cc(OC)c2F)C(=O)C32CC2)c1` [Example 7, N-(5-(2′-(2,6-difluoro-3,5-dimethoxyphenyl)-3′-oxo-2′,3′-dihydro-1′H-spiro[cyclopropane-1,4′-[2,7]naphthyridine]-6′-yl)-6-methylpyridin-3-yl)acrylamide], the IC50 at FGFR1 (setting [2]), at FGFR1 (pre-incubated for 4 hours), at FGFR2 (setting [2]), at FGFR2 (pre-incubated for 4 hours), at FGFR3 (setting [2]) and at FGFR3 (pre-incubated for 4 hours) was > 200 nM each time. In addition, the IC50 on FGFR4 (setting [3]) and on FGFR4 (setting [1]) was < 10 nM throughout. The “FGFR1/FGFR4 IC50 ratio” value on FGFR4 (setting [2]) and on FGFR4 (pre-incubated for 4 hours) was >100 each time. In addition, the “FGFR2/FGFR4 IC50 ratio” value on FGFR4 (setting [2]) and on FGFR4 (pre-incubated for 4 hours) was >100 in each case. Besides, the “FGFR3/FGFR4 IC50 ratio” value on FGFR4 (setting [2]) and on FGFR4 (pre-incubated for 4 hours) was >100 in each case.
With `C=CC(=O)Nc1cc(-c2cc3c(cn2)CN(c2c(F)c(OC)cc(OC)c2F)C(=O)C32CC2)c(C)cc1F` [Example 6, N-(5-(2′-(2,6-difluoro-3,5-dimethoxyphenyl)-3′-oxo-2′,3′-dihydro-1′H-spiro[cyclopropane-1,4′-[2,7]naphthyridine]-6′-yl)-2-fluoro-4-methylphenyl)acrylamide], the half-inhibitory concentration (IC50) at FGFR1 (setting [2]), at FGFR1 (pre-incubated for 4 hours), at FGFR2 (setting [2]), on FGFR2 (pre-incubated for 4 hours), on FGFR3 (setting [2]) and at FGFR3 (pre-incubated for 4 hours) was > 200 nM in each case. Further, the half-maximal inhibitory concentration (IC50) at FGFR4 (setting [3]) and at FGFR4 (setting [1]) was < 10 nM each time. Moreover, the “FGFR1/FGFR4 IC50 ratio” value on FGFR4 (setting [2]) and at FGFR4 (pre-incubated for 4 hours) was >100 throughout. The “FGFR2/FGFR4 IC50 ratio” value on FGFR4 (setting [2]) and on FGFR4 (pre-incubated for 4 hours) was >100 in each case. Besides, the “FGFR3/FGFR4 IC50 ratio” value on FGFR4 (setting [2]) and at FGFR4 (pre-incubated for 4 hours) was >100 throughout.
Take `C=CC(=O)Nc1ccc(C)c(-c2cc3c(cn2)CN(c2c(F)c(OC)cc(OC)c2F)C(=O)C32CC2)c1` [Example 2, N-(3-(2′-(2,6-difluoro-3,5-dimethoxyphenyl)-3′-oxo-2′,3′-dihydro-1′H-spiro[cyclopropane-1,4′-[2,7]naphthyridine]-6′-yl)-4-methylphenyl)acrylamide]: the half-maximal inhibitory concentration (IC50) at FGFR1 (setting [2]), at FGFR1 (pre-incubated for 4 hours), on FGFR2 (setting [2]), on FGFR2 (pre-incubated for 4 hours), on FGFR3 (setting [2]) and on FGFR3 (pre-incubated for 4 hours) was > 200 nM throughout. The IC50 on FGFR4 (setting [3]) and on FGFR4 (setting [1]) was < 10 nM each time. Moreover, the “FGFR1/FGFR4 IC50 ratio” value on FGFR4 (setting [2]) and on FGFR4 (pre-incubated for 4 hours) was >100 throughout. Further, the “FGFR2/FGFR4 IC50 ratio” value at FGFR4 (setting [2]) and at FGFR4 (pre-incubated for 4 hours) was >100 throughout. Moreover, the “FGFR3/FGFR4 IC50 ratio” value on FGFR4 (setting [2]) and at FGFR4 (pre-incubated for 4 hours) was >100 throughout.
